From patent US8501911B2, “Methods of reducing inflammation and mucus hypersecretion” (Biomarck Pharmaceuticals, Ltd, priority 1999, dated 2013)
Residues, ends and D or L forms follow the SMILES beside them. *: point of attachment. Myristoyl = CCCCCCCCCCCCCC(=O)*

Columns and labels:
Format in all cases: cell-based
[1] = system: LPS-primed human neutrophils; test: MPO secretion from LPS-primed human neutrophils
Protocol: Results-I-11 and Results-I-12 show MPO secretion from LPS-primed human neutrophils as a model for humans, and Results-I-13, Results-I-14, and Results-I-15 show MPO secretion from LPS-primed canine neutrophils as a model for canines. In all of these experiments, isolated neutrophils were stimulated with LPS at a concentration of 1×10^−6 M for 10 minutes at 37° C. prior to adding the stimuli. The LPS primes the cells so they can respond to a secretagogue.
Thus, in one comparative experiment, when absorbance was monitored at 450 nm while observing MPO secretion from LPS-primed human neutrophils, Results-I-11 were obtained as follows.
In another comparative experiment, when absorbance was monitored at 450 nm while observing MPO secretion from LPS-primed human neutrophils, Results-I-12 were obtained as follows.
MPO Colorimetric Enzyme Assay—Samples were assayed for MPO activity in 96 well round bottom microtiter plates using a sandwich ELISA kit (R & D Systems, Minneapolis, Minn.). Briefly, 20 microliters of sample is mixed with 180 microliters of substrate mixture containing 33 mM potassium phosphate, pH 6.0, 0.56% Triton X-100, 0.11 mM hydrogen peroxide, and 0.36 mM O-Diannisidine Dihydrochloride in an individual microtiter well. […] After mixing, the assay mixture was incubated at room temperature for 5 minutes, and MPO enzyme activity determined spectrophotometrically at 550 nanometers. […]

canine neutrophils = test: MPO secretion from isolated canine neutrophils stimulated with PMA+8-Br-cGMP
Protocol: Isolation of PMNs from canine blood—The steps involved in isolating PMN include collecting 10 ml ACD anticoagulated blood; then layering 5 ml on 3.5 ml PMN isolation media while ensuring that the PMN isolation media (IM) was at room temperature (RI). Next, the blood was centrifuged at room temperature for 30′, 550×g at 1700 RPMs. The low lower white band was transferred into a 15 ml conical centrifuge tube (CCFT). Next, 2V HESS with 10% fetal bovine serum […] was added and centrifuged at room temperature for 10′, 400×g at 1400 RPMs. The pellet was then resuspended in 5 ml 1-1ESS with PBS. The cell suspension was added to 50 ml CCFT containing 20 ml of ice cold 0.88% NH4 Cland inverted two to three times. The resulting product was centrifuged for 10′, 800×g at 2000 RPMs, then aspirated and resuspended in ml HBSS with FBS. The prep was examined by counting and cytospin and preferably for whole blood, the cell number should be between 10^9-10^11 cells and for PMNs, cell number should be between 2-4×10^7 cells. See generally, Wang et al., J. Immunol., “Neutrophil-induced changes in the biomechanical properties of endothelial cells: roles of ICAM-1 and reactive oxygen species,” 6487-94 (2000).
MPO Colorimetric Enzyme Assay—Samples were assayed for MPO activity in 96 well round bottom microtiter plates using a sandwich ELISA kit (R & D Systems, Minneapolis, Minn.). Briefly, 20 microliters of sample is mixed with 180 microliters of substrate mixture containing 33 mM potassium phosphate, pH 6.0, […], 0.11 mM hydrogen peroxide, and 0.36 mM O-Diannisidine Dihydrochloride in an individual microtiter well. The final concentrations in the assay mixture are: 30 mM potassium phosphate, pH 6.0, 0.05% Triton X-100, 0.1 mM hydrogen peroxide, and 0.32 mM O-Diannisidine Dihydrochloride. […] Samples were assayed in duplicate.

[2] = system: human bronchial epithelial cells; test: Basal (constitutive) mucin secretion by human bronchial epithelial cells; conditions: peptide 100 μM, one hour incubation, no PMA or 8-Br-cGMP
Protocol: Mucus secreted from the airway epithelial cells in vitro after stimulation by activators was assessed using an ELISA (antibody capture method) (E. Harlow, D. Lane. “Antibodies: A Laboratory Manual.” New York: Cold Spring Harbor Laboratory Press, 1988), wherein the collected mucus is bound directly to the ELISA plate. Mucus was detected using an antibody raised against monkey airway mucus (Lin et al. Am J Respir Cell Mol Biol 1:41, 1989).
The MANS peptide (100 μM) was also found to decrease constitutive (basal) mucus secretion by one hour incubation. Cells were treated as described above except that no PMA or 8-Br-cGMP was used. […] Results, designated as Results-M-1B, are presented as follows and show the inhibition of basal mucin secretion by human bronchial epithelial cells exposed to the MANS peptide (SEQ ID NO: 1) or a negative control peptide consisting of the same amino acids as the MANS peptide, but in random order (RNS peptide; random N-terminal sequence (SEQ ID NO: 26):
The effect of MA-PSD peptide (1, 10 and 100 μM) on basal mucin secretion was also measured. Cells as described above were incubated for one hour with the MA-PSD peptide (no PMA or 8-Br-cGMP).

[3] = peptide 1 μM + 100 nM PMA+10 μM 8-Br-cGMP, unstimulated control 0.10
[4] = peptide 10 μM + 100 nM PMA+10 μM 8-Br-cGMP

| SMILES | Absorbance reading at 450 nm (MPO secretion) ([1]; cGMP alone, concentration not given) | Absorbance at 450 nm (MPO secretion) (canine neutrophils; [3]) | Absorbance at 450 nm (MPO secretion) (canine neutrophils; [4]) | Basal mucin secretion level relative to control [2] | Absorbance reading at 450 nm (MPO secretion) ([1]; 10 nM PMA, medium control 0.15) |
| --- | --- | --- | --- | --- | --- |
| Nc1nc2c(nc(Br)n2[C@@H]2O[C@@H]3COP(=O)(O)O[C@H]3[C@H]2O)c(=O)[nH]1 [8-Br-cGMP] | 0.155 | – | – | – | – |
| CCCCCCCCCCCCCC(=O)NCC(=O)N[C@@H](C)C(=O)N[C@@H](CCC(N)=O)C(=O)N[C@@H](Cc1ccccc1)C(=O)N[C@@H](CO)C(=O)N[C@@H](CCCCN)C(=O)N[C@H](C(=O)N[C@@H](C)C(=O)N[C@@H](C)C(=O)N[C@@H](CCCCN)C(=O)NCC(=O)N[C@@H](CCC(=O)O)C(=O)N[C@@H](C)C(=O)N[C@@H](C)C(=O)N[C@@H](C)C(=O)N[C@@H](CCC(=O)O)C(=O)N[C@@H](CCCNC(=N)N)C(=O)N1CCC[C@H]1C(=O)NCC(=O)N[C@@H](CCC(=O)O)C(=O)N[C@@H](C)C(=O)N[C@@H](C)C(=O)N[C@H](C(=O)N[C@@H](C)C(=O)O)C(C)C)[C@@H](C)O [MANS peptide] (Myristoyl-GAQFSKTAAKGEAAAERPGEAAVA-OH; C-terminus assumed) | – | 0.25 | 0.09 | 28% | – |
| CCCCCCCCCCCCCC(=O)O[C@@H]1[C@@H](C)[C@@]2(O)[C@@H](C=C(CO)C[C@]3(O)C(=O)C(C)=C[C@@H]23)[C@@H]2C(C)(C)[C@]12OC(C)=O [PMA, phorbol 12-myristate 13-acetate] | – | – | – | – | 0.19 |
| CCCCCCCCCCCCCC(=O)NCC(=O)N[C@H](C(=O)N[C@@H](C)C(=O)N1CCC[C@H]1C(=O)N[C@@H](C)C(=O)N[C@@H](C)C(=O)N[C@@H](CCC(=O)O)C(=O)NCC(=O)N[C@@H](C)C(=O)NCC(=O)N[C@@H](C)C(=O)N[C@@H](CCC(=O)O)C(=O)N[C@H](C(=O)N[C@@H](CCCCN)C(=O)N[C@@H](CCCNC(=N)N)C(=O)N[C@@H](C)C(=O)N[C@@H](CO)C(=O)N[C@@H](C)C(=O)N[C@@H](CCC(=O)O)C(=O)N[C@@H](C)C(=O)N[C@@H](CCCCN)C(=O)N[C@@H](CCC(N)=O)C(=O)N[C@@H](C)C(=O)N[C@@H](Cc1ccccc1)C(=O)O)C(C)C)[C@@H](C)O [RNS peptide, reference compound] (Myristoyl-GTAPAAEGAGAEVKRASAEAKQAF-OH; C-terminus assumed) | – | 0.32 | 0.30 | 90% | – |
